Measurements: ChEMBL document CHEMBL1123200 (J Med Chem, 1986)

Legend:
Rattus norvegicus [1] = species on record: Rattus norvegicus; assay: Inhibition was measured for [3H]GABA-uptake from rat synaptosomal membrane.; type: functional
Rattus norvegicus [2] = species on record: Rattus norvegicus
Rattus norvegicus [3] = species on record: Rattus norvegicus; remark: listed apart in the source

| Ki (Rattus norvegicus [1]) | Km (Rattus norvegicus [2]) | Compound | Vmax (pM min-1 mg-1) (Rattus norvegicus [3]) |
| --- | --- | --- | --- |
| 12.9 µM | – | CN1CC(C(=O)O)=CC(=C(c2ccccc2)c2ccccc2)C1 | – |
| 3.8 µM | – | O=C(O)C1CCCNC1 (stereo not given) [NIPECOTIC ACID] | – |
| – | 4.3 µM | NCCCC(=O)O | 881 |
| 104 µM | – | O=C(O)C1=CC(=C(c2ccccc2)c2ccccc2)CNC1 | – |
